Data as given in PMC7316778 (Nature Communications, 2020).
Where “and” joins values, the source holds several entries; their conditions need not be identical. Equal entries are not always repeated. Where two headings read alike, the source gives them in different places.

Assays:
CDK18/cyclin Y = CDK18/cyclin Y (Homo sapiens, UniProt Q07002); assay: SelectScreen kinase assay; details: for Inhibition at 1 µM (%): CDK18/cyclin Y, ZLYTE, ATP Km app
Experimental: (§1) Selectivity profiling assays were performed by the Invitrogen SelectScreen™ Services. […] The concentration of ATP was selected to be equal to the KM, unless indicated otherwise.

FES^WT = molecular target: T1, FES^WT (Homo sapiens, UniProt P07332); assay: In vitro TR-FRET kinase assay; format: biochemical; details: TR-FRET assay, 5 µM ATP; n = 3; read-out: pIC50 FES^WT (converted)
T1 construct: human FES cDNA encoding residues 448–822 or human FER cDNA encoding residues 448–820 was amplified by PCR; made in house; host or cells: E. coli BL21(DE3), co-expressing YopH phosphatase
Experimental: All measurements were performed in triplicate.

PDGFRA (PDGFR alpha) = PDGFRA (PDGFR alpha) (Homo sapiens, UniProt P16234); assay: SelectScreen kinase assay
PDGFRA (PDGFR alpha), sequence (P16234 24-1089, species assumed): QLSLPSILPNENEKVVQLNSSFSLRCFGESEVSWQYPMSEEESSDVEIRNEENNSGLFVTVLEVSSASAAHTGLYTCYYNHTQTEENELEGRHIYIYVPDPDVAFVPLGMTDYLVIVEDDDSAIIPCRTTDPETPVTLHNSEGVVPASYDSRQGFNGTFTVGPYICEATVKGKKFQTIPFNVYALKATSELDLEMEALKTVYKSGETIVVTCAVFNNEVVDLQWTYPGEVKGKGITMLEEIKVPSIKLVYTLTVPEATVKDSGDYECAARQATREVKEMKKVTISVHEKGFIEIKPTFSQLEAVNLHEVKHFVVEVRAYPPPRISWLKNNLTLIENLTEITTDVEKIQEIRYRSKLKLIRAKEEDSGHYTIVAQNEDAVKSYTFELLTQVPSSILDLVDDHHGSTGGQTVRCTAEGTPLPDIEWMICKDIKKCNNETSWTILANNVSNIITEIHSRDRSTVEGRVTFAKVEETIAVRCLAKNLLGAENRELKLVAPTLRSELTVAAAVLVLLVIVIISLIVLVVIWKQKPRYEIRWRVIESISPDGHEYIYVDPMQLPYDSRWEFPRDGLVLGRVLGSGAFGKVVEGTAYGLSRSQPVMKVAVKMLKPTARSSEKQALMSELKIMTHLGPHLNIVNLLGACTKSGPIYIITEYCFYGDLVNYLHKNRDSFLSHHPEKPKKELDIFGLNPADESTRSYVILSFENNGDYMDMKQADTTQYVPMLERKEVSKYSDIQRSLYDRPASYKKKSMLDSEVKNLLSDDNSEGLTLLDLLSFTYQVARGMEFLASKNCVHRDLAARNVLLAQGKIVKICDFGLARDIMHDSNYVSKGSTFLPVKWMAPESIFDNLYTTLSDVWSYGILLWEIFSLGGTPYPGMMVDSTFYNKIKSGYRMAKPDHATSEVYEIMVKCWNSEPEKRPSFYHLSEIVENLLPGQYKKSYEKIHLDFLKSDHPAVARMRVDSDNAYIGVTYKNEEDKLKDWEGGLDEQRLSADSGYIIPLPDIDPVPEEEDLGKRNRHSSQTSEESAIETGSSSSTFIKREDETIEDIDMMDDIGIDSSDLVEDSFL
Experimental: as §1

CSK = CSK (Homo sapiens, UniProt P41240); assay: SelectScreen kinase assay; details: for Inhibition at 1 µM (%): CSK, ZLYTE, ATP Km app
CSK, sequence (P41240 whole entry): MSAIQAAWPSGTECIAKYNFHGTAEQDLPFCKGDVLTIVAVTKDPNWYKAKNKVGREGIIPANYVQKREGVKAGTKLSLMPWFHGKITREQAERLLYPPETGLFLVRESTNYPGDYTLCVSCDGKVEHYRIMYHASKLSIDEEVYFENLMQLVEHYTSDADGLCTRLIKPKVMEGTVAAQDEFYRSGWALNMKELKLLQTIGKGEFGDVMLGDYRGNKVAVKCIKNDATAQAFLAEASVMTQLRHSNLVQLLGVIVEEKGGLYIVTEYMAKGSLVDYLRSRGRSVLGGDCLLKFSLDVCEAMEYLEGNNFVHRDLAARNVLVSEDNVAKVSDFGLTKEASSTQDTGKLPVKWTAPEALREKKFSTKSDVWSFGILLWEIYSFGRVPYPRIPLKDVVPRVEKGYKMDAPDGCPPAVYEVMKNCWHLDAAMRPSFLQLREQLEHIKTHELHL
Experimental: as §1

NEK4 = NEK4 (Homo sapiens, UniProt P51957); assay: SelectScreen kinase assay
NEK4, sequence (P51957 whole entry): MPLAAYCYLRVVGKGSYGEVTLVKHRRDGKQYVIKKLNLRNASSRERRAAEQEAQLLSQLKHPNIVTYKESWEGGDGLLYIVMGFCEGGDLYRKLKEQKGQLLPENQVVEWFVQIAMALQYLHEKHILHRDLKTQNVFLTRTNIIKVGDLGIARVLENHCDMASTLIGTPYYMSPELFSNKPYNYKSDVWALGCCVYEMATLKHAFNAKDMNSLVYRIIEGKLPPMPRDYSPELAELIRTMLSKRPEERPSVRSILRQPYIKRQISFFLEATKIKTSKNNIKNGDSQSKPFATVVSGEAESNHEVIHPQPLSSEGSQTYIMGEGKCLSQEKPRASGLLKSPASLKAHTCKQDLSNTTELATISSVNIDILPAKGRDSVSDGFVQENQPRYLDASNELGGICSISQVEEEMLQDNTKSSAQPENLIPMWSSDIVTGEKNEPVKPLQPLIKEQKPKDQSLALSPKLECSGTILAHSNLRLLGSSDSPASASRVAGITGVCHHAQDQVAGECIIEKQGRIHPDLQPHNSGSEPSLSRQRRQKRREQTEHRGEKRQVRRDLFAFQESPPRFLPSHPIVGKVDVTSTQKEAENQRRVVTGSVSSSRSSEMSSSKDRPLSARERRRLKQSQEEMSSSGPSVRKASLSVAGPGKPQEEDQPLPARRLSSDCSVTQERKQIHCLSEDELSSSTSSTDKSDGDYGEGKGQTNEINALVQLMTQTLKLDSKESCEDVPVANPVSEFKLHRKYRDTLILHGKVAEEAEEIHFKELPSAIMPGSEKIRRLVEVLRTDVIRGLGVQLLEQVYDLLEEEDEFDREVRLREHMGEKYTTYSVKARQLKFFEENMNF
Experimental: as §1

LIMK2 = LIMK2 (Homo sapiens, UniProt P53671); assay: SelectScreen kinase assay
LIMK2, sequence (P53671 whole entry): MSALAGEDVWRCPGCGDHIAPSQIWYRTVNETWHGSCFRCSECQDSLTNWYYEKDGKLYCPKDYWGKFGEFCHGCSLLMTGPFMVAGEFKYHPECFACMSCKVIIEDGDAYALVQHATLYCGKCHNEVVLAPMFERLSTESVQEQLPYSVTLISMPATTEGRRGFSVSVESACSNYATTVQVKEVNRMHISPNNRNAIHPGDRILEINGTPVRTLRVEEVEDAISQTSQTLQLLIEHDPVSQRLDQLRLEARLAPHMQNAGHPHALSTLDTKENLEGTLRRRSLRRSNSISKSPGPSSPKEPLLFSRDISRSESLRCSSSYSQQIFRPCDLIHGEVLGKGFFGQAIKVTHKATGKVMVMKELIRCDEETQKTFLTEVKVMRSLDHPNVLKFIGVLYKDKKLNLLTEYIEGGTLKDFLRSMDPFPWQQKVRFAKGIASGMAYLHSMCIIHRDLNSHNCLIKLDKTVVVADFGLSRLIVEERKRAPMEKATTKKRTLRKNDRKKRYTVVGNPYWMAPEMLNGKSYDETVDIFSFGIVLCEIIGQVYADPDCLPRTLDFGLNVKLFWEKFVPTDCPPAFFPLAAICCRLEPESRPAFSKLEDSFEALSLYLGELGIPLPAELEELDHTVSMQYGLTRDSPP
Experimental: as §1

[1] = molecular target: PIK3CA/PIK3R3 (p110 alpha/p55 gamma) (Homo sapiens, UniProt P42336); assay: SelectScreen kinase assay; details: for Inhibition at 1 µM (%): PIK3CA/PIK3R3 (p110 alpha/p55 gamma), Adapta, ATP 10
Experimental: as §1

IGF1R = IGF1R (Homo sapiens, UniProt P08069); assay: SelectScreen kinase assay
Experimental: as §1

CDK13/cyclin K = CDK13/cyclin K (Homo sapiens, UniProt Q14004); assay: SelectScreen kinase assay; format: biochemical
STK23 (MSSK1) = STK23 (MSSK1) (Homo sapiens, UniProt Q9UPE1); assay: SelectScreen kinase assay; details: for Inhibition at 1 µM (%): ZLYTE, ATP Km app
STK23 (MSSK1), sequence (Q9UPE1 whole entry): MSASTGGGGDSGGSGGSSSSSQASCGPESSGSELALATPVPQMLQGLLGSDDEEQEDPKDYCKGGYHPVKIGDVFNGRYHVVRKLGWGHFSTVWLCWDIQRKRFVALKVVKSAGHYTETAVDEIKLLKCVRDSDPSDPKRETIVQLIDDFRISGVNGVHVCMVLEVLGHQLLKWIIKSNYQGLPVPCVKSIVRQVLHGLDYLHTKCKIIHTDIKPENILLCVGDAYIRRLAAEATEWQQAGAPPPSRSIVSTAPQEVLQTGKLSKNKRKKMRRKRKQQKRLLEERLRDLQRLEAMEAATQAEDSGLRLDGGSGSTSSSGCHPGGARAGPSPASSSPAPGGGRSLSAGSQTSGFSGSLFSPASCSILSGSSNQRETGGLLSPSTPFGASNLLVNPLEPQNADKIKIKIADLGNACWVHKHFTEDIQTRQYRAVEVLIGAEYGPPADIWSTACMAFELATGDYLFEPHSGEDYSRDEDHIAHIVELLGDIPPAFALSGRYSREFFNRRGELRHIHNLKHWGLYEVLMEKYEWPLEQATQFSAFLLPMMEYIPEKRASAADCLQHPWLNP
Experimental: as §1

DDR1 = DDR1 (Homo sapiens, UniProt Q08345); assay: SelectScreen kinase assay
Experimental: as §1

TAOK3 (JIK) = molecular target: T2, TAOK3 (JIK) (Homo sapiens, UniProt Q9H2K8); assay: SelectScreen kinase assay; details: for Inhibition at 1 µM (%): LanthaScreen Binding
T2 sequence (Q9H2K8 1-898): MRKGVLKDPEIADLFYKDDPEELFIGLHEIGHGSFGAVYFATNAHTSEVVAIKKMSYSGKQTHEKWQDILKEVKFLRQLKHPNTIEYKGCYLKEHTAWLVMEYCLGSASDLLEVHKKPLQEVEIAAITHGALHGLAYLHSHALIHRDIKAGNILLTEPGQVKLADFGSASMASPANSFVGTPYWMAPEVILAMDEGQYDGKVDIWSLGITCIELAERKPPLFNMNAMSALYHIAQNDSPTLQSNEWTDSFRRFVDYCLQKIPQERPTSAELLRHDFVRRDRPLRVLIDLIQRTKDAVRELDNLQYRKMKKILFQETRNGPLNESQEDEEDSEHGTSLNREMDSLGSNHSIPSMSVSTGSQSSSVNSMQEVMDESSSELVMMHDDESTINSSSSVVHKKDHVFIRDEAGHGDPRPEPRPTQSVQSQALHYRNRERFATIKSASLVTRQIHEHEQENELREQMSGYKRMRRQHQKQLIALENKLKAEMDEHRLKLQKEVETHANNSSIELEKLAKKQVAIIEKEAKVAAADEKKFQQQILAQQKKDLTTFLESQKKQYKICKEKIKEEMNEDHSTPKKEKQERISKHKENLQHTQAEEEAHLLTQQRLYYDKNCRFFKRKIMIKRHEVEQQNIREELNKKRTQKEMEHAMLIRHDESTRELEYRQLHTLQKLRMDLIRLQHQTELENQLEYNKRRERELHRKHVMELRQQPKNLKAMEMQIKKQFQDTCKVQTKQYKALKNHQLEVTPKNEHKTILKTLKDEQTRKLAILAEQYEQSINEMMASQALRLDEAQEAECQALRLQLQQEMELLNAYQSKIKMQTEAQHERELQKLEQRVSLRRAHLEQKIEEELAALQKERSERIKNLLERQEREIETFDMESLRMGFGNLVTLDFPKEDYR
Experimental: as §1

PRKCN (PKD3) = PRKCN (PKD3) (Homo sapiens, UniProt O94806); assay: SelectScreen kinase assay
Experimental: as §1

STK3 (MST2) = STK3 (MST2) (Homo sapiens, UniProt Q13188); assay: SelectScreen kinase assay
Experimental: as §1

EIF2AK2 (PKR) = EIF2AK2 (PKR) (Homo sapiens, UniProt P19525); assay: SelectScreen kinase assay
EIF2AK2 (PKR), sequence (P19525 whole entry): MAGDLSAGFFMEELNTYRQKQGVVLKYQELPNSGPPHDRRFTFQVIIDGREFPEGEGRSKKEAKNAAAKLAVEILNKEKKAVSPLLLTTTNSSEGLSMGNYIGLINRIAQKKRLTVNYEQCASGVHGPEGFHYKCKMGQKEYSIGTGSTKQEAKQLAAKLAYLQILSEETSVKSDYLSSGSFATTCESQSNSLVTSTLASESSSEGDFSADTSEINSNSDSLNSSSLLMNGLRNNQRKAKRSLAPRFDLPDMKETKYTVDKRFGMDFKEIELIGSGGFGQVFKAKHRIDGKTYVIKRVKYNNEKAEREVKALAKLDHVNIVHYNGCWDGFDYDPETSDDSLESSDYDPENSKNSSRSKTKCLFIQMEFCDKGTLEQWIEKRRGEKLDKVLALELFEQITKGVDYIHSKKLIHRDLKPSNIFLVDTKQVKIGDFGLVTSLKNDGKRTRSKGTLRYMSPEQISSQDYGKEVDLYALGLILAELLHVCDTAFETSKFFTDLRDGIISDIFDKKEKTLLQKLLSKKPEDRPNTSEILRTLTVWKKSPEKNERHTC
Experimental: as §1

[2] = 1 h, 1 μM WEL028, 1 h preincubation

CDK18/cyclin Y, sequence (Q07002 whole entry): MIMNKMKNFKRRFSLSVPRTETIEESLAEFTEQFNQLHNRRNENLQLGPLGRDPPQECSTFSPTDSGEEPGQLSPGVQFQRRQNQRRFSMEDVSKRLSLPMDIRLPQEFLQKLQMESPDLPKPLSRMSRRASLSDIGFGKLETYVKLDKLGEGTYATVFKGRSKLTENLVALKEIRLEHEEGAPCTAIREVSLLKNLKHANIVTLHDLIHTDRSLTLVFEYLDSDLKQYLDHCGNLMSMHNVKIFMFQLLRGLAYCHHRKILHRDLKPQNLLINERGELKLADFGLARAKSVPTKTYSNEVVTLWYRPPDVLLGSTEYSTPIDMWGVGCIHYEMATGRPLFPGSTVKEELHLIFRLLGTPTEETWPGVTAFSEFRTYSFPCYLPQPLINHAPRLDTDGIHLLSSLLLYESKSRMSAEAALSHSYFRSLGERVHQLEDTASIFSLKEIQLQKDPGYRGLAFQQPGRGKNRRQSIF
CDK18/cyclin Y, sequence (Q8ND76 whole entry partner): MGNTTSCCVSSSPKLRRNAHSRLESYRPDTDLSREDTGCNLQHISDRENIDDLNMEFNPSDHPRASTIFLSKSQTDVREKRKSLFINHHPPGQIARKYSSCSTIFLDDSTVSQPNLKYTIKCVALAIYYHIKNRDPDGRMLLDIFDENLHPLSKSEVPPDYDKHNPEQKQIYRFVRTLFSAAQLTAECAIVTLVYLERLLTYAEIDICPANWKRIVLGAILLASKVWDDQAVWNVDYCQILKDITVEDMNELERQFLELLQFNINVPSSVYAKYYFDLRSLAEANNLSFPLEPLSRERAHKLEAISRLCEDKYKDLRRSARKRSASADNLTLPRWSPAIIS

C#CCOc1ccc(Nc2ncc(Cl)c(Nc3ccccc3NC(=O)C=C)n2)c(OC)c1 [Compound 6]
inhibition at 1 µM (CDK18/cyclin Y; [2]): 1%
Inhibition at 1 µM (%) (CDK18/cyclin Y): 3%
Inhibition at 1 µM (%) (CDK18/cyclin Y; listed as WEL028, 1 µM): -1%
IC50 (FES^WT): > 3 µM
IC50 (PDGFRA (PDGFR alpha)): 0.794 µM
inhibition at 1 µM (PDGFRA (PDGFR alpha); [2]): 63%
inhibition at 10 µM (PDGFRA (PDGFR alpha); 1 h, log[inhibitor] (M) -5.00, ZLYTE, ATP Km app): 90%
inhibition at 3.31 µM (PDGFRA (PDGFR alpha); 1 h, log[inhibitor] (M) -5.48, ZLYTE, ATP Km app): 93%
inhibition at 1.12 µM (PDGFRA (PDGFR alpha); 1 h, log[inhibitor] (M) -5.95, ZLYTE, ATP Km app): 61%
inhibition at 0.372 µM (PDGFRA (PDGFR alpha); 1 h, log[inhibitor] (M) -6.43, ZLYTE, ATP Km app): 22%
inhibition at 0.123 µM (PDGFRA (PDGFR alpha); 1 h, log[inhibitor] (M) -6.91, ZLYTE, ATP Km app): 7%
Apparent fold selectivity (PDGFRA (PDGFR alpha); IC50 on that kinase divided by IC50 on FES^S700C): 184 fold
Inhibition at 1 µM (%) (PDGFRA (PDGFR alpha); PDGFRA (PDGFR alpha), 1 µM, ZLYTE, ATP Km app, listed as WEL028, 1 µM): 58%
inhibition at 1 µM (PDGFRA (PDGFR alpha); read-out: Inhibition at 1 µM (%), PDGFRA (PDGFR alpha), 1 µM, ZLYTE, ATP Km app): 68%
Inhibition (%) (CSK; 1 μM WEL028, 1 h preincubation): 5%
Inhibition at 1 µM (%) (CSK): 2%
Inhibition at 1 µM (%) (CSK; listed as WEL028, 1 µM): 8%
inhibition at 1 µM (NEK4; [2]): 4%
Inhibition at 1 µM (%) (NEK4; NEK4, 1 µM, ZLYTE, ATP Km app, listed as WEL028, 1 µM): 5%
inhibition at 1 µM (NEK4; read-out: Inhibition at 1 µM (%), NEK4, 1 µM, ZLYTE, ATP Km app): 4%
inhibition at 1 µM (LIMK2; [2]): -2%
Inhibition at 1 µM (%) (LIMK2; LIMK2, 1 µM, LanthaScreen Binding, listed as WEL028, 1 µM): -5% and 1%
inhibition at 1 µM [1, 2]: 1%
Inhibition at 1 µM (%) [1]: 2%
Inhibition at 1 µM (%) ([1]; listed as WEL028, 1 µM): -1%
inhibition at 1 µM (IGF1R; [2]): 15%
inhibition at 1 µM (IGF1R; read-out: Inhibition at 1 µM (%), IGF1R, 1 µM, ZLYTE, ATP Km app): 14%
Inhibition (%) (CDK13/cyclin K; 1 μM WEL028, 1 h preincubation): -3%
Inhibition at 1 µM (%) (CDK13/cyclin K; CDK13/cyclin K, 1 µM, LanthaScreen Binding, listed as WEL028, 1 µM): -1% and -5%
Inhibition at 1 µM (%) (STK23 (MSSK1)): 2%
Inhibition at 1 µM (%) (STK23 (MSSK1); listed as WEL028, 1 µM): -4%
inhibition at 1 µM (STK23 (MSSK1); [2]): -1%
inhibition at 1 µM (DDR1; [2]): -2%
Inhibition at 1 µM (%) (DDR1; DDR1, 1 µM, LanthaScreen Binding, listed as WEL028, 1 µM): -3%
Inhibition at 1 µM (%) (TAOK3 (JIK)): 2%
Inhibition at 1 µM (%) (TAOK3 (JIK); listed as WEL028, 1 µM): 0%
inhibition at 1 µM (TAOK3 (JIK); [2]): 1%
inhibition at 1 µM (PRKCN (PKD3); [2]): 31%
inhibition at 1 µM (PRKCN (PKD3); read-out: Inhibition at 1 µM (%), PRKCN (PKD3), 1 µM, ZLYTE, ATP Km app): 32%
Inhibition at 1 µM (%) (STK3 (MST2); 1 µM, ZLYTE, ATP Km app): 15%
inhibition at 1 µM (STK3 (MST2); [2]): 5%
Inhibition (%) (EIF2AK2 (PKR); 1 μM WEL028, 1 h preincubation): 4%
Inhibition at 1 µM (%) (EIF2AK2 (PKR); EIF2AK2 (PKR), 1 µM, LanthaScreen Binding, listed as WEL028, 1 µM): 6% and 1%
